Assay [1] deals with T1, Histone-lysine N-methyltransferase EHMT2 (Homo sapiens) (UniProt Q96KQ7).
T1 sequence (whole entry): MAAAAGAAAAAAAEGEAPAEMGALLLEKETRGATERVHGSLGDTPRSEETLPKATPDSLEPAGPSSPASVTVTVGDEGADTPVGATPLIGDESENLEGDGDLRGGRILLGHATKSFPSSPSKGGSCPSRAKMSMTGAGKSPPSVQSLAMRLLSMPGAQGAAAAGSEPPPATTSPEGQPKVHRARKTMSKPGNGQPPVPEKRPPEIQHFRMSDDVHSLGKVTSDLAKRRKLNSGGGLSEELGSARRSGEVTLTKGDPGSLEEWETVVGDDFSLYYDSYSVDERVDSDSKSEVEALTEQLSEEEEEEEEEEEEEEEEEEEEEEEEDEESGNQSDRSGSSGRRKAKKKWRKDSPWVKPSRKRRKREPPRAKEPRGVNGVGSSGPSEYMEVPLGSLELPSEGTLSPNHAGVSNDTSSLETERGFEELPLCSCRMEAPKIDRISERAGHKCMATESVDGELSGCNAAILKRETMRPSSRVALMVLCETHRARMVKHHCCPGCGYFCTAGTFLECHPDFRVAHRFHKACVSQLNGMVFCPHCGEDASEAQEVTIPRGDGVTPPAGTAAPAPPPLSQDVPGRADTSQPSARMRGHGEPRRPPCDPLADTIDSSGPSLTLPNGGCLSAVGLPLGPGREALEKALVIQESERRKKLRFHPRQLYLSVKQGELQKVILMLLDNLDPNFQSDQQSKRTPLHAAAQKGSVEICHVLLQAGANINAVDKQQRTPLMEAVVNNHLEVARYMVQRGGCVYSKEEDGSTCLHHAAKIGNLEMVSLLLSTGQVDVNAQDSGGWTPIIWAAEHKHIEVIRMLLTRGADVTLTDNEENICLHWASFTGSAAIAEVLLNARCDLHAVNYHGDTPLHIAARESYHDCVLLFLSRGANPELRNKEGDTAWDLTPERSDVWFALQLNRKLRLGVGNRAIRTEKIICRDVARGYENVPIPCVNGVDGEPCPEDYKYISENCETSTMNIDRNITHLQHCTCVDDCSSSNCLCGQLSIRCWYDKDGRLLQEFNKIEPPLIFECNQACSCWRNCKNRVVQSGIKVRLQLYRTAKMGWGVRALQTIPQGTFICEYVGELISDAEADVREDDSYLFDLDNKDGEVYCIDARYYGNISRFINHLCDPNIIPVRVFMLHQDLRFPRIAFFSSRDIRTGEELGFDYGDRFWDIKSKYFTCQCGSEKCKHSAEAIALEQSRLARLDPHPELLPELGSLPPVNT
The assay is described as follows: Inhibition of G9a (unknown origin) at 10 uM by HMT assay.

Assay [2] has as its target Histone-lysine N-methyltransferase SETDB1 (Homo sapiens, UniProt Q15047). The assay can be described thus: Inhibition of SETDB1 (unknown origin) by HMT assay.
For assay [3], the target named is N-lysine methyltransferase SMYD2 (Homo sapiens, UniProt Q9NRG4). The assay is described as follows: Inhibition of SMYD2 (unknown origin) by HMT assay.
Assay [4] addresses T2, Histone-lysine N-methyltransferase EHMT1 (Homo sapiens, UniProt Q9H9B1).
T2 sequence (Q9H9B1 whole entry): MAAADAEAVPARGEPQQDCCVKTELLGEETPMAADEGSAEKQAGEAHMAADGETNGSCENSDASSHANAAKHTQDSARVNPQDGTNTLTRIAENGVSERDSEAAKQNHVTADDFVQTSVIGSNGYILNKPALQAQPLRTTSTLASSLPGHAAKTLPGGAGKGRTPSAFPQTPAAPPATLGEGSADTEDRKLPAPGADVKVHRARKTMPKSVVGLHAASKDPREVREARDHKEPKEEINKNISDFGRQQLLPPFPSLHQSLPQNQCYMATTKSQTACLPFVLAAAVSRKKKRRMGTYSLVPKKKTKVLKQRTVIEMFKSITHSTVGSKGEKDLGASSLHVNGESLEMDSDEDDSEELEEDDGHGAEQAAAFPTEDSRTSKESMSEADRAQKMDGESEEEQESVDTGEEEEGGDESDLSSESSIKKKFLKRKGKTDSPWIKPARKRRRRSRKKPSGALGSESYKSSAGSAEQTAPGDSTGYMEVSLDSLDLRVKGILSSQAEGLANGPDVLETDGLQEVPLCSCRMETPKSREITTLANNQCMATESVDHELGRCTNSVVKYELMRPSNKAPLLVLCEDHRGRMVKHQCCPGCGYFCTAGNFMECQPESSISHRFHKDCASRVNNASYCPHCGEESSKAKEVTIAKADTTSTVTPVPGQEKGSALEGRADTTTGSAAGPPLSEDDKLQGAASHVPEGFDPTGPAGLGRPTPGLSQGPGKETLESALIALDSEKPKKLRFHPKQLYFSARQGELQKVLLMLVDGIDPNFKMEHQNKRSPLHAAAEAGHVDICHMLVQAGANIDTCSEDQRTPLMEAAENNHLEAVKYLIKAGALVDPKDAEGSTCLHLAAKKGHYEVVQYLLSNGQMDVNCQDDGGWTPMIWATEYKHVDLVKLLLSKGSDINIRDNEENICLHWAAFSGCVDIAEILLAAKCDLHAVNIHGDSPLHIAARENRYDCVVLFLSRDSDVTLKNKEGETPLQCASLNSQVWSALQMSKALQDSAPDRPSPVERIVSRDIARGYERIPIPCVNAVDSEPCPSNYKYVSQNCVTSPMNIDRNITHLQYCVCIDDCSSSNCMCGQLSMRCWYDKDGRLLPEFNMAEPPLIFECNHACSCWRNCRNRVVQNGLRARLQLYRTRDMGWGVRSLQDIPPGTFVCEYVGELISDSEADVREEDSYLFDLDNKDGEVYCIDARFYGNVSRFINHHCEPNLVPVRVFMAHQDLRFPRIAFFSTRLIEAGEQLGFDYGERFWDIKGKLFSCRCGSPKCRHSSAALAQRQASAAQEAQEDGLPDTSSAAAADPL
The assay is described as follows: Inhibition of EHMT1 (unknown origin) by HMT assay.

Assay [5] addresses T3, Histone-lysine N-methyltransferase SETD7 (Homo sapiens, UniProt Q8WTS6).
T3 sequence (Q8WTS6 whole entry): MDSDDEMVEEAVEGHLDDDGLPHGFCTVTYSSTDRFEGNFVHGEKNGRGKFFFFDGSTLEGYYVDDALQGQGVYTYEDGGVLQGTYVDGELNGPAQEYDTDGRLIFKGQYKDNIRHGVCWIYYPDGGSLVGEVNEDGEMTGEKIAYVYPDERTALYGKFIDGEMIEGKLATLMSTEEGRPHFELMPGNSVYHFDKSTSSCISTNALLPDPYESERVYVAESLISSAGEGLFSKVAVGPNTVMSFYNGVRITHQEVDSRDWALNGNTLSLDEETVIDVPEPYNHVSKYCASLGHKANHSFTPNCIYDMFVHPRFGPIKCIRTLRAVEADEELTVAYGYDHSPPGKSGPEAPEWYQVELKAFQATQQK
The assay can be described thus: Inhibition of SETD7 (unknown origin) by HMT assay.

Assay [6] concerns the target T4, Histone-lysine N-methyltransferase EHMT2 (Homo sapiens, UniProt Q96KQ7).
T4 sequence (Q96KQ7 whole entry): T1 sequence (whole entry)
The assay is described as follows: Inhibition of G9a (unknown origin) by HMT assay.

Sequence of N-lysine methyltransferase SMYD2 (Q9NRG4 whole entry): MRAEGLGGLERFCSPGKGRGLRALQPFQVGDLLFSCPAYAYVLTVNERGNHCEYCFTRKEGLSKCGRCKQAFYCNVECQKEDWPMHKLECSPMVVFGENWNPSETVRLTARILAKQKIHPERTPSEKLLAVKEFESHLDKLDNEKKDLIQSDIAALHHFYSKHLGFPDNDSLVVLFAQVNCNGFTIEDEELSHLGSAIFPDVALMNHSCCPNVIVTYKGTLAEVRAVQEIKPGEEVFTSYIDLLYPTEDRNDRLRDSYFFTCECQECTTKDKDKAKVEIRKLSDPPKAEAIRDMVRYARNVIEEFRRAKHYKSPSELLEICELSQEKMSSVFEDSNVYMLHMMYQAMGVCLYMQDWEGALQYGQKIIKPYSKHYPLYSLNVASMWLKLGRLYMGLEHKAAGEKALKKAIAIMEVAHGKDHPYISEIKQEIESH

On to `Nc1ncnc2c1ncn2[C@@H]1O[C@H](CSCC[C@H](N)C(=O)NCc2cc(-c3ccccc3)[nH]n2)[C@@H](O)[C@H]1O`, for which the inhibition in assay [1] turned out to be 20%. Moreover, the IC50 in assay [2] was more than 100 µM; in assay [3] it was more than 100 µM; in assay [4], more than 30 µM; in assay [5], more than 100 µM; in assay [6], more than 100 µM.

By inhibition is commonly meant the drop in the measured response relative to a control, in per cent. Read a high inhibition as a strong effect. As usually defined, the IC50 is the concentration that gives 50% inhibition.

These data come from ChEMBL document CHEMBL3396964, “SAH derived potent and selective EZH2 inhibitors” (Bioorg Med Chem Lett, 2015).
